Measured values reported in article PMC10108392, “Rimonabant-Based Compounds Bearing Hydrophobic Amino Acid Derivatives as Cannabinoid Receptor Subtype 1 Ligands” (ACS Medicinal Chemistry Letters, 2023).
“Also recorded” adds a separate entry of the source.

What was measured:
CB1R [1] = target: T1, CB1R (Rattus norvegicus, UniProt P20272); experiment: Ligand stimulated [35S]GTPγS binding assay in rat brain membranes; format: biochemical; details: for CB1R functional profile (agonist / antagonist / inverse agonist): from [35S]GTPγS binding; for CB1R functional profile (agonist / antagonist / inverse agonist) / EC50: rat brain membranes; for EC50: ± SEM, read-out: [35S]GTPγS stimulation EC50; for Emax: read-out: [35S]GTPγS stimulation Emax
T1 construct: Crude membrane fractions were prepared from the brain; from tissue; host or cells: Wistar rat whole brain, crude membrane fraction
T1 sequence (P20272 whole entry): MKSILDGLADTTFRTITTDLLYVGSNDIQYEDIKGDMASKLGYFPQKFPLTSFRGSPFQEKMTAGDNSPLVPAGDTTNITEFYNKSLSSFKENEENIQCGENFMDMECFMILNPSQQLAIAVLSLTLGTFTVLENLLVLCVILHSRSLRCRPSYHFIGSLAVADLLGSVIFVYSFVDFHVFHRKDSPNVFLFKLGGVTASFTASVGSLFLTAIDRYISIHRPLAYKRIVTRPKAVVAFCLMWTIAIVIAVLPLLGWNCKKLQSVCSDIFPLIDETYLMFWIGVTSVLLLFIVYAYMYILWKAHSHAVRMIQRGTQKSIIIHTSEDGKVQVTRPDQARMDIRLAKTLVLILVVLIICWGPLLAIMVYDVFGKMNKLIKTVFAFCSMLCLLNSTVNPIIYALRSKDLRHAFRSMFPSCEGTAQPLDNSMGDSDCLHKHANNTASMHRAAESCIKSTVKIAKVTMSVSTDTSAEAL
Protocol: (§1) Our novel chemical compounds were tested in vitro for their binding ability, efficacy, and potency on CB1R in rat brain membrane homogenate (Table 2 and SI, Figure S1). CB1Rs are the most abundant G-protein coupled receptors in the rodent and mammalian brain; therefore, this is an appropriate model to characterize our ligands in a more physiological system.
(§2) In Vitro Biological Assays
(§3) Preparation of Brain Membrane Homogenates
Wistar rats were locally bred and handled according to the EU Directive 2010/63/EU and to the Regulations on Animal Protection (40/2013. (II. 14.) Korm. r.) of Hungary. Crude membrane fractions were prepared from the brain. Brains were quickly removed from the euthanized rats and directly put in an ice-cold 50 mM Tris-HCl buffer (pH 7.4). The collected tissue was then homogenized in 30 volumes (v/w) of an ice-cold buffer with a Braun Teflon-glass homogenizer at the highest rpm. The homogenate was centrifuged at 20,000 × g for 25 min, and the resulting pellet was suspended in the same volume of a cold buffer followed by incubation at 37 °C for 30 min to remove endogenous ligands. Centrifugation was then repeated. The final pellets were taken up in five volumes of a 50 mM Tris-HCl (pH 7.4) buffer containing 0.32 M sucrose and stored at -80 °C. Prior to the experiment, aliquots were thawed and centrifuged at 20,000 ×g for 25 min and then they were resuspended in 50 mM Tris-HCl (pH 7.4), homogenized with a Douncer, followed by the determination of the protein concentration by the method of Bradford. The membrane suspensions were immediately used either in radioligand binding experiments or in [35S]GTPγS functional assays. […]
(§4) was terminated by diluting the samples with an ice-cold wash buffer (50 mM of Tris-HCl, 2.5 mM of EGTA, 5 mM of MgCl2, 0.5% fatty acid free BSA, pH 7.4), followed by repeated washing and rapid filtration through Whatman GF/B glass fiber filters (Whatman Ltd., Maidstone, UK) pre-soaked with 0.1% polyethyleneimine (30 min before the filtration). Filtration was performed with a 24-well Brandel Cell Harvester (Gaithersburg, MD, USA). Filters were air-dried and immersed into Ultima Gold MV scintillation cocktail, and then radioactivity was measured with a TRI-CARB 2100TR liquid scintillation analyzer (Packard, Perkin Elmer, Waltham, MA, USA).
Ligand Stimulated [35S]GTPγS Binding Assay
Rat brain membranes (30 µg protein/tube), prepared as described above, were incubated with 0.05 nM of […]
mM of NaCl, 3 mM of MgCl2 and 1 mM of EGTA in a 50 mM Tris-HCl buffer (pH 7.4) for 60 min at 30 °C. Basal [35S]GTPγS binding was measured in the absence of ligands and set as 100%. Nonspecific […]
binding was determined by the addition of 10 µM unlabelled GTPγS and subtracted from total binding.
Incubation, filtration and radioactivity measurements of the samples were carried out as described above. […]
All […]
data and curves were analyzed by GraphPad Prism 5.0 (San Diego, CA, USA).

mice [2] = experiment: Feeding test (food intake); format: in vivo, mouse; details: 10 mg/kg i.p., 1-h test, vs vehicle
Protocol: The tested compounds were injected i.p. (10 mg/kg), and after leaving for 30 min to allow the drug assimilation, mice were placed into individual cages with access to a predefined amount of their standard lab chow (2 g) for the 1-h test.
(§5) In Vivo Biological Assays
The international and national law and policies approved by Italian Ministry of Health were used to comply with all animal care and experimental procedures. Animal studies were advised in compliance with the ARRIVE guidelines and with the recommendations made by EU Directive 2010/63/EU for animal experiments and the Basel declaration including the 3Rs concept. CD-1 male mice (10-14 weeks of age, 25-30 g of weight) were bought from Charles River (Milan, Italy). Shortly after their arrival and for at least one week, they were kept in an animal care facility under controlled standard conditions of temperature (21 ± 1 °C), light (from 7:00 AM to 7:00 PM), and relative humidity (60 ± 10%). Access to drinking water and food was assured. All procedures were performed to decrease the number of animals used (n = 7 per group) and their distress.
The test was carried out as previously described. At 24 h before the start of a feeding test, all food was removed from the home cages of mice to be tested. The next day and at least 1 h before the feeding test began, the mice were transported to the laboratory. On test days, the animals were placed in the home cages for 30 min of drug assimilation, during which food was not available. Then compounds were intraperitoneally administered (10 mg/kg). Mice were transferred into transparent and individual plastic cages with thick white paper lining the bottom and access to a pre-measured amount of their regular lab chow (2 gr) for the 1-h test. At the end of 1 h, mice were repositioned into their home cage. The amount of food left in the trial cage, including crumbs, was measured, and the amount consumed was calculated.
Feeding trials normally happened on Tuesdays and Fridays between 12:00 and 14:00 h. […]

CB1R [3] = target: T1, CB1R; experiment: [3H]WIN55,212-2 radioligand competition binding assay in rat brain membrane homogenate; details: read-out: Ki [3H]WIN55,212-2 binding, 5 nM [3H]WIN55,212-2, ± SEM, n.b. = no binding of ligands was observed
Protocol: as §1, §2, §3
Wistar rats were locally bred and handled according to the EU Directive 2010/63/EU and to the Regulations on Animal Protection (40/2013. (II. 14.) Korm. r.) of Hungary. Crude membrane fractions were prepared from the brain. Brains were quickly removed from the euthanized rats and directly put in an ice-cold 50 mM Tris-HCl buffer (pH 7.4). The collected tissue was then homogenized in 30 volumes (v/w) of an ice-cold buffer with a Braun Teflon-glass homogenizer at the highest rpm. The homogenate was centrifuged at 20,000 × g for 25 min, and the resulting pellet was suspended in the same volume of a cold buffer followed by incubation at 37 °C for 30 min to remove endogenous ligands. Centrifugation was then repeated. The final pellets were taken up in five volumes of a 50 mM Tris-HCl (pH 7.4) buffer containing 0.32 M sucrose and stored at -80 °C. Prior to the experiment, aliquots were thawed and centrifuged at 20,000 ×g for 25 min and then they were resuspended in 50 mM Tris-HCl (pH 7.4), homogenized with a Douncer, followed by the determination of the protein concentration by the method of Bradford. The membrane suspensions were immediately used either in radioligand binding experiments or in [35S]GTPγS functional assays.
Radioligand Competition Binding Assay
Binding experiments were performed at 30 °C for 60 min in a 50 mM Tris-HCl binding buffer (pH 7.4) containing 2.5 mM of EGTA, 5 mM of MgCl2 and 0.5 mg/mL of fatty acid-free BSA in plastic tubes in a total assay volume of 1 mL that contained 0.3-0.5 mg/mL of a membrane protein. Competition binding […]
ligands. […] The incubation […]
as §4, with “MA, USA). […]” for “MA, USA).”
The results of the competition binding studies are reported as means ± S.E.M. of at least three independent experiments each performed in duplicate. In competition binding studies, the inhibitory constants (Ki) were calculated from the inflection points of the displacement curves using non-linear least-square curve fitting and the Cheng-Prusoff equation, Ki= […]/(1 + [ligand]/Kd). […]

mice [4] = experiment: Hot plate test; format: in vivo, mouse; details: 10 μg/10 μL i.c.v., 15-120 min
Source text: as §5
The international and national law and policies approved by Italian Ministry of Health were used to comply with all animal care and experimental procedures. Animal studies were advised in compliance with the ARRIVE guidelines and with the recommendations made by EU Directive 2010/63/EU for animal experiments and the Basel declaration including the 3Rs concept. CD-1 male mice (10-14 weeks of age, 25-30 g of weight) were bought from Charles River (Milan, Italy). […]
The test was carried out as previously described. […] Mice were transferred into transparent and individual plastic cages with thick white paper lining the bottom and access to a pre-measured amount of their regular lab chow (2 gr) for the 1-h test. […] The amount of food left in the trial cage, including crumbs, was measured, and the amount consumed was calculated. […]
Thermal nociception (hot-plate test) was assessed with a commercially available apparatus consisting of a metal plate 25x25 cm (Ugo Basile, Italy) heated to a constant temperature of 55.0 ± 0.1 °C, on which a plastic cylinder (20 cm diameter, 18 cm high) was placed. The time of latency (s) was recorded from the moment the animal was placed in the cylinder on the hot plate until it licked its paws or jumped; the cut-off time was 60 s. […] The time course of latency was then determined at 15, 30, 45, 60, 90 and 120 min after compound treatment. […]

partially satiated rats = details: cited from earlier work
mice [5] = experiment: Zymosan-induced paw edema; format: in vivo, mouse; details: 100 μg/20 μL s.c., 15 min before zymosan
Protocol: Drugs were administered s.c. in the dorsal surface of the right hind paw at the dose of 100 μg/20 μL, 15 min before zymosan. […]
testing. […] Then, the compounds were
Compounds were prepared by freshly diluting
Then, these solutions were injected for
The total time the animal spent licking or biting its paw was calculated.
Then, paw edema was calculated as formerly
Paw volume was quantified using a
Data Analysis and Statistics
Statistically significant differences between
Data were considered statistically
The data and statistical analyses respected the recommendations on experimental design and analysis.

mice [6] = details: mice colitis model; cited from earlier work
[7] = test system: rats with spinal cord injury (SCI); details: repeated treatment; cited from earlier work

Structure (SMILES): COC(=O)[C@@H](NC(=O)c1cc(-n2cccc2)n(-c2ccc(Cl)cc2)n1)C(C)C [Compound 21, RS2689-Val-OCH3]
- CB1R functional profile (agonist / antagonist / inverse agonist) (CB1R [1]): inverse agonists
- EC50 (CB1R [1]): 1360 ± 139 nM
- Emax (CB1R [1]): 52 ± 4.8%
- food intake (mice [2]): slight reduction in food intake
- Ki (CB1R [3]): 261 ± 27 nM

Structure (SMILES): COC(=O)[C@@H](NC(=O)c1nn(-c2ccc(Cl)cc2Cl)c(-n2cccc2Cl)c1C)C(C)C [Compound 29, RS3516-Val-OCH3]
- CB1R functional profile (agonist / antagonist / inverse agonist) (CB1R [1]): inverse agonists
- EC50 (CB1R [1]): 2840 ± 118 nM
- Emax (CB1R [1]): 44 ± 10%
- food intake (mice [2]): strong anorexic effect comparable to that of rimonabant
- Ki (CB1R [3]): 30 ± 3.5 nM

Structure (SMILES): Cc1c(C(=O)N[C@H](C(N)=O)C(C)(C)C)nn(-c2ccccc2)c1-n1cccc1 [Compound 18, RS2709-tLeu-NH2]
- CB1R functional profile (agonist / antagonist / inverse agonist) (CB1R [1]): inverse agonist
- EC50 (CB1R [1]): 3320 ± 242 nM
- Emax (CB1R [1]): 57 ± 13%
- food intake (mice [2]): slight reduction in food intake
- Ki (CB1R [3]): 60 ± 6.1 nM

Structure (SMILES): Cc1c(C(=O)c2cccc3ccccc23)c2cccc3c2n1[C@H](CN1CCOCC1)CO3 [WIN55,212-2]
- anti-nociceptive effect in hot plate test (%MPE) (mice [4]): diminished immediately after administration
- Emax (CB1R [1]): 170 ± 1.7%
- food intake and motor behavior after WIN55,212-2 (partially satiated rats; higher doses (5 mg/kg), partially satiated rats): inhibit the food intake and motor behavior
- food intake after WIN55,212-2 (partially satiated rats; i.p. 1 mg/kg and 2 mg/kg, up to 6 h after the injection): hyperphagia
- anti-inflammatory effect on zymosan-induced paw volume increase (mice [5]): induced an anti-inflammatory effect
- anti-inflammatory effect in DSS-induced colitis (mice [6]): acting as an anti-inflammatory drug with improved pathological changes
- neuropathic pain-related behavior [7]: sustained decrease in neuropathic pain-related behavior

Structure (SMILES): COC(=O)[C@@H](NC(=O)c1cc(-n2cccc2)n(-c2ccccc2)n1)C(C)(C)C [Compound 26, RS2708-tLeu-OCH3]
- CB1R functional profile (agonist / antagonist / inverse agonist) (CB1R [1]): inverse agonists
- EC50 (CB1R [1]): 1290 ± 151 nM
- Emax (CB1R [1]): 44 ± 5%
- food intake (mice [2]): strong anorexic effect comparable to that of rimonabant
- Ki (CB1R [3]): 283 ± 18 nM

Structure (SMILES): COC(=O)[C@@H](NC(=O)c1nn(-c2ccc(Cl)cc2)c(-n2cccc2)c1C)C(C)(C)C [Compound 24, RS2691-tLeu-OCH3]
- CB1R functional profile (agonist / antagonist / inverse agonist) (CB1R [1]): inverse agonists; also recorded: strong antagonist
- Emax (CB1R [1]): 99 ± 4%
- food intake (mice [2]): slight reduction in food intake
- Ki (CB1R [3]): 17 ± 3.7 nM

Structure (SMILES): Cc1c(C(=O)N[C@H](C(N)=O)C(C)(C)C)nn(-c2ccc(Cl)cc2)c1-n1cccc1 [Compound 14, RS2691-tLeu-NH2]
- CB1R functional profile (agonist / antagonist / inverse agonist) (CB1R [1]): antagonist
- Emax (CB1R [1]): 104 ± 1.4%
- food intake (mice [2]): activity profile close to that of the vehicle
- Ki (CB1R [3]): 21 ± 3.8 nM

Structure (SMILES): CNC(=O)[C@@H](NC(=O)c1nn(-c2ccc(Cl)cc2)c(-n2cccc2)c1C)C(C)C [Compound 33, RS2691-Val-NHCH3]
- CB1R functional profile (agonist / antagonist / inverse agonist) (CB1R [1]): antagonists
- Ki (CB1R [3]): 168 ± 16 nM

Structure (SMILES): COC(=O)[C@@H](NC(=O)c1cc(-n2cccc2)n(-c2ccc(Cl)cc2)n1)C(C)(C)C [Compound 22, RS2689-tLeu-OCH3]
- CB1R functional profile (agonist / antagonist / inverse agonist) (CB1R [1]): inverse agonists
- EC50 (CB1R [1]): 4960 ± 333 nM
- Emax (CB1R [1]): 43 ± 12%
- food intake (mice [2]): activity profile close to that of the vehicle
- Ki (CB1R [3]): 44 ± 4 nM
